According to ChEMBL document CHEMBL1201862, “PubChem BioAssay data set” (2004):
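Test compounds were applied to cells in 96-well plates for 48 hours at 5 doses. GI50 is the concentration that inhibits growth by half.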 Active and inactive are the calls of the source. Cut-off read from the data, not from the text of the source: active = GI50 up to about 1.1 µM and inactive = higher.

Columns and labels:
Experiment in all cases: NCI tumour cell line growth inhibition, 48 h
COLO 205 = test system: COLO 205
SNB-19 = test system: SNB-19
SF-268 = test system: SF-268
ACHN = test system: ACHN
U-251 = test system: U-251
HOP-92 = test system: HOP-92
EKVX = test system: EKVX
SNB-75 = test system: SNB-75
TK-10 = test system: TK-10
OVCAR-5 = test system: OVCAR-5
SK-OV-3 = test system: SK-OV-3
IGROV-1 = test system: IGROV-1
UO-31 = test system: UO-31
NCI-H460 = test system: NCI-H460
OVCAR-4 = test system: OVCAR-4
HOP-62 = test system: HOP-62
SW-620 = test system: SW-620

Row | Compound | GI50 (COLO 205) | GI50 (SNB-19) | GI50 (SF-268) | GI50 (ACHN) | GI50 (U-251) | GI50 (HOP-92) | GI50 (EKVX) | GI50 (SNB-75) | GI50 (TK-10) | GI50 (OVCAR-5) | GI50 (SK-OV-3) | GI50 (IGROV-1) | GI50 (UO-31) | GI50 (NCI-H460) | GI50 (OVCAR-4) | GI50 (HOP-62) | GI50 (SW-620)
1 | Cc1cc(N(CCC#N)CCC#N)ccc1/C=C/C(=O)Nc1cccc(Cl)c1 | > 100 µM (inactive) | > 100 µM (inactive) | > 100 µM (inactive) | 57.3 µM (inactive) | > 100 µM (inactive) | 43.4 µM (inactive) | > 100 µM (inactive) | 89.9 µM (inactive) | > 100 µM (inactive) | > 100 µM (inactive) | > 100 µM (inactive) | > 100 µM (inactive) | 27.6 µM (inactive) | > 100 µM (inactive) | 58.6 µM (inactive) | > 100 µM (inactive) | > 100 µM (inactive)
2 | CCOC(=O)C(=O)Nc1c(F)cc(F)cc1Br | > 100 µM (inactive) | > 100 µM (inactive) | > 100 µM (inactive) | > 100 µM (inactive) | > 100 µM (inactive) | > 100 µM (inactive) | > 100 µM (inactive) | > 100 µM (inactive) | > 100 µM (inactive) | > 100 µM (inactive) | > 100 µM (inactive) | > 100 µM (inactive) | > 100 µM (inactive) | > 100 µM (inactive) | > 100 µM (inactive) | > 100 µM (inactive) | > 100 µM (inactive)
3 | CCc1cccc(C(C)CC)c1NC(=O)C(=O)C(CC(=O)Nc1ccc(Cl)c(Cl)c1)C(=O)OC (stereo not given) | > 100 µM (inactive) | > 100 µM (inactive) | 64 µM (inactive) | 9.71 µM (inactive) | > 100 µM (inactive) | 16.7 µM (inactive) | > 100 µM (inactive) | 21 µM (inactive) | > 100 µM (inactive) | > 100 µM (inactive) | > 100 µM (inactive) | > 100 µM (inactive) | 73.1 µM (inactive) | > 100 µM (inactive) | > 100 µM (inactive) | 71.1 µM (inactive) | 46.7 µM (inactive)
4 | O=C(O)C#CCO | > 100 µM (inactive) | > 100 µM (inactive) | > 100 µM (inactive) | > 100 µM (inactive) | > 100 µM (inactive) | > 100 µM (inactive) | > 100 µM (inactive) | > 100 µM (inactive) | > 100 µM (inactive) | > 100 µM (inactive) | > 100 µM (inactive) | > 100 µM (inactive) | > 100 µM (inactive) | > 100 µM (inactive) | > 100 µM (inactive) | > 100 µM (inactive) | > 100 µM (inactive)
5 | COC(=O)C(c1ccc(OC)cc1)N1C(=O)[C@@H](NC(=O)c2ccccc2)[C@H]1[C@@H](C)O (stereo not given in full) | > 100 µM (inactive) | > 100 µM (inactive) | > 100 µM (inactive) | > 100 µM (inactive) | > 100 µM (inactive) | > 100 µM (inactive) | > 100 µM (inactive) | > 100 µM (inactive) | > 100 µM (inactive) | – | > 100 µM (inactive) | > 100 µM (inactive) | > 100 µM (inactive) | > 100 µM (inactive) | > 100 µM (inactive) | > 100 µM (inactive) | > 100 µM (inactive)
6 | CC(=O)OCC1OC(OC2CC3C(C)(C)C(OC(C)=O)CC[C@]3(C)C3CCC45CC4(CC[C@H]5C(C)CC(O)C4OC4(C)C)[C@]23C)C(O)C(O)C1O (stereo not given in full) | 1.01 µM (active) | 4.06 µM (inactive) | 2.44 µM (inactive) | 2.21 µM (inactive) | 1.82 µM (inactive) | 2.25 µM (inactive) | 3.11 µM (inactive) | 2.27 µM (inactive) | 3.35 µM (inactive) | 1.03 µM (active) | 2.3 µM (inactive) | 0.0715 µM (active) | 3.68 µM (inactive) | 1.79 µM (inactive) | 1.48 µM (inactive) | 5.56 µM (inactive) | 2.43 µM (inactive)
7 | COC(OC)[C@@H](C)[C@H](O)[C@](C)(O)C1OC(C)(C)OC(C(C)C=C(C)C)C1C (stereo not given in full) | > 100 µM (inactive) | > 100 µM (inactive) | > 100 µM (inactive) | > 100 µM (inactive) | > 100 µM (inactive) | > 100 µM (inactive) | > 100 µM (inactive) | > 100 µM (inactive) | > 100 µM (inactive) | > 100 µM (inactive) | > 100 µM (inactive) | > 100 µM (inactive) | 80.7 µM (inactive) | > 100 µM (inactive) | > 100 µM (inactive) | > 100 µM (inactive) | > 100 µM (inactive)
8 | CC1(C)CC[C@]2(C(=O)O)CCC3(C)C(=CCC4[C@@]5(C)CC[C@H](OC6OCC(O)C(O)C6OC6OC(CO)C(O)C(O)C6O)C(C)(C)C5CC[C@]43C)C2C1 (stereo not given in full) | 1.89 µM (inactive) | 1.93 µM (inactive) | 2.4 µM (inactive) | 1.94 µM (inactive) | 1.93 µM (inactive) | 1.84 µM (inactive) | 1.79 µM (inactive) | 2.2 µM (inactive) | 2.04 µM (inactive) | 2.41 µM (inactive) | 2.22 µM (inactive) | 2.67 µM (inactive) | 2.16 µM (inactive) | 2.1 µM (inactive) | 1.57 µM (inactive) | 2.09 µM (inactive) | 2.15 µM (inactive)
